Test results reported in BindingDB's records for doi:10.1016/j.bioorg.2016.11.008 (Beni-Suef University, 2017).
Values joined by “and” are separate entries in the source; they are usually repeats but may differ in a detail not shown here. Equal entries are not always repeated.

Experiments:
[1] = molecular target: T1, Prostaglandin G/H synthase 1 (Ovis aries, UniProt P05979); test: COX-1/COX-2 Inhibition Colorimetric Assay
T1 sequence (P05979 whole entry): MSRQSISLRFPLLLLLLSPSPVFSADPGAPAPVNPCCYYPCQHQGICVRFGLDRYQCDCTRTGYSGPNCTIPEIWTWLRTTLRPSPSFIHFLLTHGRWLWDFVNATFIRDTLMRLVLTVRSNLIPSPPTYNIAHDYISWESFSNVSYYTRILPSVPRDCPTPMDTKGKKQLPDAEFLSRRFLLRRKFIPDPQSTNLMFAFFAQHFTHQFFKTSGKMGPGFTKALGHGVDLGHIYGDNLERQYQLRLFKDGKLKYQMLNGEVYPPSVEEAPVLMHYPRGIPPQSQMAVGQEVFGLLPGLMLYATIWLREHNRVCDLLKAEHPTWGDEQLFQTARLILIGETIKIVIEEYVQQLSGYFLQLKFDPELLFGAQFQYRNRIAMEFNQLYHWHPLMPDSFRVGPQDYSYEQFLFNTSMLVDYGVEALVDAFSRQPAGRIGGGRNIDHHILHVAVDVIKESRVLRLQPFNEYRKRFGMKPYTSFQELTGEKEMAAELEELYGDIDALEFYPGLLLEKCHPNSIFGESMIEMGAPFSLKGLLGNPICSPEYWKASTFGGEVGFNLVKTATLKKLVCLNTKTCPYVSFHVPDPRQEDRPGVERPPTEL
Procedure: (§1) The in vitro inhibition of ovine COX-1 and COX-2 was measured using an enzyme immuno assay (EIA) kit (Cayman Chemical, Ann Arbor, MI, USA) according to the manufacturer's instructions and as reported before [Roschek et al., J. Med. Food., 12:615-623].

[2] = molecular target: T2, Prostaglandin G/H synthase 2 (Ovis aries, UniProt P79208); test: COX-1/COX-2 Inhibition Colorimetric Assay
T2 sequence (P79208 whole entry): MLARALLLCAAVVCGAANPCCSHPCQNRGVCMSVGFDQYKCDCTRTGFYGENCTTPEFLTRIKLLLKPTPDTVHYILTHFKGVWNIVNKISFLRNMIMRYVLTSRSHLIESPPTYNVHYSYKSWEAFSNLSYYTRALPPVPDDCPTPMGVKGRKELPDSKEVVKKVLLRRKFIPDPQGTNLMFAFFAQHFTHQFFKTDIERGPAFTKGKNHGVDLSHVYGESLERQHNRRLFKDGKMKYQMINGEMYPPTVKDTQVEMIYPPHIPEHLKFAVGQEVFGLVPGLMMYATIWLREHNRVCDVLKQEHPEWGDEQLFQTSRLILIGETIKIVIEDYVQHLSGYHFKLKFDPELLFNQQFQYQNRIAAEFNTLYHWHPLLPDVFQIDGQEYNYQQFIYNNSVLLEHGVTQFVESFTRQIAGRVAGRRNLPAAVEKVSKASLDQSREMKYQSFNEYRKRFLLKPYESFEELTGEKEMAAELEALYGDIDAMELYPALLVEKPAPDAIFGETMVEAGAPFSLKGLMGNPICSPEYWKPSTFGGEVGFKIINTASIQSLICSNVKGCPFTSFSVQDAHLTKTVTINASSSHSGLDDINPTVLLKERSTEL
Procedure: as §1

Row | IC50 [1] | IC50 [2] | SMILES
1 | 9.89 µM | 1.52 µM | CS(=O)(=O)c1ccc(N2N=C(c3ccc(Cl)cc3)CC2c2ccc(Cl)cc2)cc1 (configuration not stated) [3,5-Bis-(4-chloro-phenyl)-1-(4-methanesulfonyl-phenyl)-4,5-dihydro-1H-pyrazole (10j)]
2 | 8.65 µM | 0.98 µM | COc1cc(C2CC(c3ccc(Br)cc3)=NN2c2ccc(S(C)(=O)=O)cc2)cc(OC)c1OC (configuration not stated) [3-(4-Bromo-phenyl)-1-(4-methanesulfonyl-phenyl)-5-(3,4,5-trimethoxy-phenyl)-4,5-dihydro-1H-pyrazole (10g)]
3 | 3.87 µM and 8.34 µM | 0.42 µM and 2.98 µM | COc1cc(C2CC(c3ccc(Cl)cc3)=NN2c2ccc(S(C)(=O)=O)cc2)cc(OC)c1OC (configuration not stated) [3-(4-Chloro-phenyl)-1-(4-methanesulfonyl-phenyl)-5-(3,4,5-trimethoxy-phenyl)-4,5-dihydro-1H-pyrazole (10h)]
4 | 3.41 µM | 0.22 µM | COc1cc(C2CC(c3ccc(Cl)cc3)=NN2c2ccc(S(N)(=O)=O)cc2)cc(OC)c1OC (configuration not stated) [4-[3-(4-Chloro-phenyl)-5-(3,4,5-trimethoxy-phenyl)-4,5-dihydropyrazol-1-yl]-benzene-sulfonamide (10b)]
5 | 5.17 µM | 0.63 µM | COc1ccc(C2CC(c3ccc(Br)cc3)=NN2c2ccc(S(N)(=O)=O)cc2)cc1 (configuration not stated) [UNM-0000306138]

More lines, now with the values behind:

Row | SMILES | IC50 [1] | IC50 [2]
6 | COc1ccc(C2CC(c3ccc(Cl)cc3)=NN2c2ccc(S(N)(=O)=O)cc2)cc1 (configuration not stated) | 6.52 µM | 0.74 µM
7 | COc1ccc(C2CC(c3ccc(Br)cc3)=NN2c2ccc(S(C)(=O)=O)cc2)cc1 (configuration not stated) [3-(4-Bromo-phenyl)-1-(4-methanesulfonyl-phenyl)-5-(4-methoxy-phenyl)-4,5-dihydro-1H-pyrazole (10k)] | 4.85 µM | 0.63 µM
8 | COc1ccc(C2CC(c3ccc(Cl)cc3)=NN2c2ccc(S(C)(=O)=O)cc2)cc1 (configuration not stated) [3-(4-Chloro-phenyl)-1-(4-methanesulfonyl-phenyl)-5-(4-methoxy-phenyl)-4,5-dihydro-1H-pyrazole (10l)] | 10.2 µM | 3.41 µM
9 | COc1cc(C2CC(c3ccc(Br)cc3)=NN2c2ccc(S(N)(=O)=O)cc2)cc(OC)c1OC (configuration not stated) [4-[3-(4-Bromo-phenyl)-5-(3,4,5-trimethoxy-phenyl)-4,5-dihydropyrazol-1-yl]-benzene-sulfonamide (10a)] | 7.52 µM | 0.78 µM
10 | NS(=O)(=O)c1ccc(N2N=C(c3ccc(Br)cc3)CC2c2ccc(Cl)cc2)cc1 (configuration not stated) [4-[3-(4-Bromo-phenyl)-5-(4-chloro-phenyl)-4,5-dihydro-pyrazol-1-yl]-benzene-sulfonamide (10c)] | 6.87 µM | 1.43 µM
11 | NS(=O)(=O)c1ccc(N2N=C(c3ccc(Cl)cc3)CC2c2ccc(Cl)cc2)cc1 (configuration not stated) [4-[3-(4-Chloro-phenyl)-5-(4-chloro-phenyl)-4,5-dihydro-pyrazol-1-yl]-benzene-sulfonamide (10d)] | 5.11 µM | 0.9 µM
